# Measurements as given in patent publication US20240108722A1, “TUMOR-INFILTRATING LYMPHOCYTES WITH MEMBRANE BOUND INTERLEUKIN 15 AND USES THEREOF” (OBSIDIAN THERAPEUTICS, INC., priority 2021, published 2024).
# Tested on: regulated mbIL15 TILs
# Experiment: ACZ regulation of IL15 expression and signaling, phospho-flow cytometry-based assay
# Type: cell-based, human
# Conditions: 18 hours
# Method: Pre-REP TILs were prepared similarly to the methods of Example 1-3 and 9, and unengineered and mbIL15 TIL generated accordingly as described in Examples 1-3 and 9. Engagement of the IL15 signaling pathway results in phosphorylation of signal transducers downstream, including the transcription factor protein STAT5 and ribosomal protein S6. […] Next, the regulated mbIL15 TILs were regulated for 18 hours in the presence of a range of concentrations of ACZ including 0.1, 1, 2.5, 5, 10, 25, 100 as well as vehicle control. The regulated mbIL15 TILs were then collected for staining and FACS analysis.
# Briefly, cells were stained using antibodies for CD3, CD4, CD8, IL15 and a Live/Dead marker. Then cells were fixed in 2% formaldehyde (BD Cytofix) and permeabilized using a methanol-based buffer (BD Phospho Perm III Buffer) before staining with antibodies specific for phosphorylated STAT5 (Biolegend) and S6 (Cell Signaling Technology). Cells were acquired on the BD Symphony and analyzed using FlowJo software.
# With increasing concentrations of ACZ expression of mbIL15 also increases, plateauing at around 10-25 μM of ACZ. FIG. 9A. […] FIGS. 9B-E and FIG. 10.
smiles,measurement,setting,value
"CC(=O)Nc1nnc(S(N)(=O)=O)s1 [ACZ, acetazolamide]",staining intensity of pSTAT5 and pS6,"0.1-100 μM ACZ, regulated mbIL15 TILs",increased with higher concentrations of ACZ
same,ACZ concentration at which mbIL15 expression plateaus,regulated mbIL15 TILs from four human donors,10 to 25 µM
